Data from patent US6696545B1, “Cytomodulating lipophilic peptides for modulating immune system activity and inhibiting inflammation” (Sangstat Medical Corporation, priority 1997, dated 2004).
Ends that are not written are not given here.

How the values were obtained:
[1] = tested on: TNF-α production by RAW264.7 macrophage cells; assay: LPS-stimulated TNF-α production, ELISA of culture supernatants; format: cell-based; conditions: 10 μg/ml LPS, 1 to 100 μM peptide, 24 hours
Method: In order to determine the effect of bc peptides on the production of inflammatory cytokines, RAW264.7 macrophage cells were stimulated in culture with 10 μg/ml bacterial lipopolysaccharide (LPS) to produce the inflammatory cytokine tumor necrosis factor-α (TNF-α) (see […] et al., J. Immunol. 153:1674 (1994) and Tonetti et al., Biochem. Biophys. Res. Comm. 230:636-640 (1997)), either in the absence or presence (1 to 100 μM) of test peptide. Following incubation for 24 hours, the amount of TNF-α in the culture supernatents was determined by ELISA.

[2] = tested on: C57BL/6 neonatal heart allograft in CBA/J recipient mice; assay: Heterotopic neonatal cardiac transplant into ear pinnae, direct injection into allograft; format: in vivo, mouse
Method: We next sought to determine if local delivery of bc peptides via plasmid-mediated gene transfer could extend in vivo transplant survival in a murine heterotopic cardiac transplant model. Specifically, C57BL/6 donor neonatal hearts were transplanted subcutaneously into the ear pinnae of CBA/J recipient mice, bc peptide, or 20 μg of plasmid DNA encoding the bc peptide of interest, was injected directly into the allograft at the time of transplantation. Survival of the allografts was determined by electrocardiogram monitoring and rejection was determined as the cessation of cardiac electrical activity. Graft survival is expressed in days (mean±SEM). Statistical significance was determined by an unpaired Student's t-test.

recombinant hsc70 = molecular target: T1, recombinant hsc70 (Bos taurus, UniProt P19120); assay: hsc70 binding ELISA / competition with biotinylated-2702.75-84
T1 construct: purchased Stressgen, Victoria, Canada
T1 sequence (P19120 2-650 limits assumed): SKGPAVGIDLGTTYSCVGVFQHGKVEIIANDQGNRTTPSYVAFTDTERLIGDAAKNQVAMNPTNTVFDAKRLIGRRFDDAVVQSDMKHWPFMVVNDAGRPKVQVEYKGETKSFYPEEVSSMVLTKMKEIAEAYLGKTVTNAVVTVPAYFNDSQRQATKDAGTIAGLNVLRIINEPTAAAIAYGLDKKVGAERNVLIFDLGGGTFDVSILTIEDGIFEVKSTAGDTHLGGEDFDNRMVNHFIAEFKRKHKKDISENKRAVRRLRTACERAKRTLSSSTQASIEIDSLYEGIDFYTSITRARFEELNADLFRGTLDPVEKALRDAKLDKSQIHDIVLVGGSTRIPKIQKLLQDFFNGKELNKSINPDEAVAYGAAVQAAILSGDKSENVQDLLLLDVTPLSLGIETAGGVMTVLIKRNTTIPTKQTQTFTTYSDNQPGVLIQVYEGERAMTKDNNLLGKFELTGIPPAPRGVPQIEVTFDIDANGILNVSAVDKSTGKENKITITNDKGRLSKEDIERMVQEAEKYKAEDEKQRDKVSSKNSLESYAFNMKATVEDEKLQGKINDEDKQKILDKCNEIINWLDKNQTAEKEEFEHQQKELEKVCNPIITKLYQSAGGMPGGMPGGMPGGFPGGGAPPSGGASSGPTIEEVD
Method: To determine if bc peptides are capable of binding to hsc70, protein binding assays were performed. Specifically, peptide 2702.75-84 was synthesized in a biotinylated form with biotin attached to the N-terminus via a six carbon spacer. ELISA plates (Nunc Maxisorb, Nunc, USA) were coated with 100 ng/ml of recombinant hsc70 (Stressgen, Victoria, Canada) in 100 mM Na-citrate buffer, pH 4.0 overnight at 4° C. Subsequently, remaining binding sites were blocked by incubating the plates with PBS/0.1% Tween 20 (PBS/Tween; Sigma) for 2 hours at room temperature. Unbound material was removed by washing the plates three times with PBS/Tween. Following the addition of biotinylated 2702.75-84 in PBS/Tween/1% DMSO, the plates were incubated for 2 hours at room temperature, washed three times, incubated with 0.1 μg/ml streptavidin conjugated to horseradish peroxidase (streptavidin-HRP) (Jackson ImmunoResearch Laboratories, West Grove, Pa.) and washed again. Bound streptavidin-HRP was detected using 3 mg/ml o-phenylenediamine (OPD; Sigma) in substrate buffer (SangStat, Menlo Park, Calif.). The reaction was stopped by addition of 1M HCl and absorbance (OD490-OD605) was measured using an ELISA plate reader. Binding of unlabeled peptide was measured in a competition assay. […] Bound biotinylated-2702.75-84 was then detected as described above.

[3] = tested on: C57B1/6 heart allograft in CBA mice; assay: Vascularized fully mismatched heterotopic heart allograft model; format: in vivo, mouse; conditions: intraperitoneal
Method: The immunosuppressive activity of the bc peptides was evaluated in a vascularized fully mismatched mouse heart allograft model. Specifically, abdominal heterotopic heart transplantation was performed as described previously by Ono and Lindsey, J. Thoracic Cardiovasc. Surg. 7:225 (1969)). CBA mice recipients of C57B1/6 hearts were treated daily with various doses of peptide following organ transplantation. Peptides were dissolved in DMSO and diluted in PBS (final DMSO concentration was 10%) before intraperitoneal administration. Animals were treated starting at the day of transplantation until day five or nine. Graft survival was monitored daily by direct palpation, and rejection was defined as termination of palpable cardiac contractility. The statistical significance of prolongation of heart allograft survival was calculated using the Mann-Whitney test.

[4] = molecular target: T2, heme oxygenase (HO, hsp32) (Mus musculus, UniProt P14901); assay: Heme oxygenase activity in spleen homogenate (bilirubin formation); format: biochemical; conditions: control peptide
T2 construct: Spleen homogenates were used as the source of HO for all activity measurements; from tissue; host or cells: mouse spleen homogenate
T2 sequence (P14901 1-289): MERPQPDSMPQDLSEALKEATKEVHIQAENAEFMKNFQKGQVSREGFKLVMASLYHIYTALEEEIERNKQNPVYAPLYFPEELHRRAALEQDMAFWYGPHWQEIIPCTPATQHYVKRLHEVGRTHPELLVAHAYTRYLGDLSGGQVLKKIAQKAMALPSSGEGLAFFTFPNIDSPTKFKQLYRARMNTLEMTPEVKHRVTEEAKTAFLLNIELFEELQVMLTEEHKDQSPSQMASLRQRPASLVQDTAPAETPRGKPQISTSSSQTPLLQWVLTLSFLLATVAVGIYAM
Method: The effect of the bc peptides on hsp32 (heme oxygenase) was evaluated by measuring heme oxygenase (HO) in the presence or absence of bc peptides. Specifically, mouse spleen samples were homogenized on ice in a Tris-Cl lysis buffer (pH 7.4) containing 0.5% Triton X-100 and protease inhibitors. Samples were frozen in small aliquots until use. Spleen homogenates were used as the source of HO for all activity measurements. Biliverdin reductase was purified from rat liver by the method described by Kutty and Maines, J. Biol Chem., 256:3956 (1981). HO activity was measured by mixing 100 μl of spleen homogenate with 0.8 mM NADPH, 0.8 mM glucose-6-phosphate, 1.0 unit G-6-P dehydrogenase, 1 mM MgCl2 and 10 μl of biliverdin reductase at 4° C. The reaction was initiated by the addition of Hemin (20 μl of 2.5 mM). The reaction mixture was incubated at 37° C. in the dark for 30 min. At the end of the incubation period, any insoluble material was centrifuged and supernatants were analyzed for bilirubin concentration by a modified procedure of Hillman and Beyer, Z. Klin. Chem. 5:92 (1981) (Sigma Diagnostics, kit #552). Controls included spleen samples in the absence of the NADPH generating system and all components of the reaction mixture in the absence of the spleen homogenates.

[5] = tested on: LPS-induced septic shock in mice; assay: LPS septic shock model, survival; format: in vivo, mouse; conditions: 20 mg/kg peptide in mannitol 16 h before 100 mg/kg LPS
From the text: Administration of LPS to mice provides an accepted animal model for septic shock (see Otterbein et al., Amer. J. Physiol. 272(2):1 (1997), Albrecht et al., Hepatology 26:1553-1559 (1997), Haziot et al., J. Immunol. 154:6529-6532 (1995) and Otterbein et al., Am. J. Respir. Cell Mol. Biol. 13:595-601 (1995)). To provide further evidence of the utility of bc peptides for the treatment of inflammatory responses and inflammatory conditions (such as septic shock), we tested the effect of bc peptides on the survival of mice following administration of LPS thereto. Specifically, mice were treated with 20 mg/kg of control peptide 2705 or bc peptide in mannitol or with mannitol alone. Sixteen hours after administration of the peptide in mannitol or mannitol alone, the mice were injected with 100 mg/kg LPS and survival of the mice was monitored twice daily.

[6] = tested on: T-cell mediated lysis of EL4 target cells by CBA to B6 effector cells; assay: Cytotoxic T-cell activity, 51Cr release assay; format: cell-based, mouse; conditions: concentrations up to 100 μg/ml, 4-hour incubation
Method: To assay the effect of peptides on cytotoxic T cell activity, CBA to B6 effector cells were prepared following a 6-day culture of 4×10^6 CBA spleen cells with 5×10^6 mitomycin-treated B6 spleen cells in wells of a 24 well plate (Nuncion Delta, Nunc, Denmark) in RPMI-1640 with 10% FBS. Effector cells were then harvested and washed. EL4 (H-2^b), a mouse lymphoma induced in C57BL/6N was used as target cells. Cultured EL4 cells were maintained and sub-cultured once every three days […] Effector (E) and target (T) cells were then added into V-shaped tissue culture plates (Nunc, Denmark) at E:T ratios of 3:1, 10:1, 30:1, 100:1, respectively. Peptides were diluted to the working concentrations with R-10 medium and added at the beginning of the 4-hour incubation period. For the determination of maximal release, 1% Triton X-100 was added to separate wells. Plates were then centrifuged for 2 min. to increase cellular contact before the 4-hour incubation period. After incubation, 75 μl supernatant from each well was collected and the amount of ^51Cr was counted using a TopCount Scintillation Counter. The degree of cell lysis was calculated using the formula below: [formula]

[7] = tested on: T-cell proliferation (spleen cells isolated from CBA mice stimulated with anti-CD3 monoclonal antibody); assay: Antiproliferative activity: anti-CD3 stimulated spleen cells, [3H]-TdR incorporation; format: cell-based, mouse; conditions: 3 days
From the text: Adult 6-8 week old male C57BL6/J (B6, […]), Balb/c(H-2^d) and CBA/J (H-2^k) mice were purchased from the Jackson Laboratory, Bar Harbor, Me. They were kept and maintained in the animal facility in the SangStat Medical Corporation according to NIH guidelines and regulations of the Department of Health.
Peptides were synthesized at synt:em (Nimes, France) using an automated peptide synthesizer and Fmoc chemistry. All peptides were synthesized as amides and then converted to acetate salts. Peptides were purified by preparative reverse phase HPLC and shown to be >95% homogenous by analytical reverse phase HPLC. Amino acid content was confirmed by amino acid analysis. Before use, peptides were first dissolved in 1 volume of DMSO (Sigma) followed by addition of 99 volume of culture medium. The final concentration of DMSO in culture was not greater than 0.25%. […]
Spleen cells isolated from CBA mice were then stimulated (2×10^5/well) with anti-CD3 monoclonal antibody (Pharmingen, San Diego) at a final concentration of 0.1 to 1 μg/ml in 96-well, round-bottom microculture plates (Nunc, Denmark). bc peptides at various concentrations were added at the beginning of the culture. […] Cells were then harvested using a Filtermate 196 Harvester (Packard, Downers Grove, Ill.) and the degree of thymidine incorporation was measured using a TopCount Microplate Scintillation Counter (Packard).

Question: For RVNLPIALRY [D2RP, control peptide], which “inhibition of the production of TNF-α” value [1] is on record?
Answer: no ability to inhibit

Question: What does the source list for `CC[C@H](C)[C@H](NC(=O)[C@H](CCCNC(=N)N)NC(=O)[C@H](CC(C)C)NC(=O)[C@H](CC(N)=O)NC(=O)[C@H](CCC(=O)O)NC(=O)[C@@H](N)CCCNC(=N)N)C(=O)N[C@@H](C)C(=O)N[C@@H](CC(C)C)C(=O)N[C@@H](CCCNC(=N)N)C(=O)N[C@@H](Cc1ccc(O)cc1)C(N)=O` [2702.75-84, Arg-Glu-Asn-Leu-Arg-Ile-Ala-Leu-Arg-Tyr]?
Answer: Graft survival (mean±SEM) ([2]; 1 μg peptide injected directly into the allograft, untreated controls 13.9±0.9): 13.3 ± 0.75 days; Graft survival (mean±SEM) ([2]; 400 μg peptide injected directly into the allograft): 22.0 ± 0.58 days; IC50 (recombinant hsc70; competition with 3 μM biotinylated-2702.75-84, 3 hrs room temperature, read-out: Half maximal inhibition (IC50) of binding of biotinylated-2702.75-84 to hsc70): 7 ± 3 µM; effect on transplant survival over the control treatment ([3]; 40 mg/kg/day): no observable effect; heart allograft survival ([3]; 80 mg/kg/day (days 0-9), PBS/DMSO controls 8±1.4 days): 10.7±2.6 days

Question: How did the “effect on HO activity” value [4] turn out when REDLRTLLRY [compound 2705] was run?
Answer: inactive

Question: What about the “survival of mice after LPS” value [5] of the same compound?
Answer: died on day one

Question: And the “effect on T-cell mediated target cell lysis” value [6]?
Answer: no effect

Question: What about the “effect on T-cell proliferation” value [7] of the same compound?
Answer: no effect

Question: How did the “binding to hsc70 coated ELISA plates” value (recombinant hsc70; direct binding, streptavidin-HRP detection) turn out when “biotinylated-2702.75-84: peptide 2702.75-84 with biotin attached to the N-terminus via a six carbon spacer” was run?
Answer: dose dependent binding
